Results on four compounds are retold here after publication PMC2847595 (Nuclear medicine and biology, 2010).

Data set [1] is described as follows: Ex vivo radio-HPLC analysis of mouse whole brain after radiotracer injection. The class given is in vivo. The conditions noted are these: for increase of brain concentration by ketoconazole pretreatment: ketoconazole 50 mg/kg i.p.; for brain concentration: 30 min after radiotracer injection.
Data set [2] can be described thus: Ex vivo radio-HPLC analysis of mouse plasma after radiotracer injection. The class given is in vivo. The conditions noted are these: for plasma concentration: 30 min after radiotracer injection; for increase of plasma concentration by ketoconazole pretreatment: both wild-type and knockout mice, ketoconazole 50 mg/kg i.p.
The next data set deals with P-glycoprotein (P-gp). Conditions: cited from earlier work.
The next data set relates to cDNA-expressed CYP3A4. Conditions: in vitro; cited from earlier work.
The test system of a further data set is CYP3A4. The conditions noted are these: cited from earlier work.
The mark [3] stands for this setting: P-gp knockout mice, after [11C]loperamide.
Where [4] appears, read: P-gp knockout mice, ketoconazole 50 mg/kg i.p. pretreatment.
The mark [5] stands for this setting: wild-type mice, after [11C]loperamide.
Where [6] appears, read: wild-type mice, ketoconazole 50 mg/kg i.p. pretreatment.
[7] abbreviates: P-gp knockout mice, baseline (no ketoconazole).
Where [8] appears, read: wild-type mice, baseline (no ketoconazole).

`CN([11CH3])C(=O)C(CCN1CCC(O)(c2ccc(Cl)cc2)CC1)(c1ccccc1)c1ccccc1` [[^11C]dLop] [[N-methyl-^11C]N-desmethyl-loperamide]: the “increase of brain concentration by ketoconazole pretreatment” value in data set [1] (setting [3]) is listed as “two-fold”. Also, the brain concentration is 37.1 ± 7.3 % SUV in data set [1] (P-gp knockout mice, baseline); 37.9 ± 6.7 % SUV in data set [1] (setting [4]); 1.93 ± 0.52 % SUV in data set [1] (wild-type mice, baseline); 2.2 ± 0.5 % SUV in data set [1] (setting [6]). For the same compound, the “effect of ketoconazole pretreatment on brain concentration” value is reported as “little effect” in data set [1] (either knockout or wild-type mice, after [11C]dLop) and “did not increase” in data set [1] (setting [5]). Further, the plasma concentration is reported as 2.26 ± 0.54 % SUV in data set [2] (setting [7]), 3.4 ± 0.4 % SUV in data set [2] (setting [4]), 1.36 ± 0.18 % SUV in data set [2] (setting [8]) and 3.3 ± 0.4 % SUV in data set [2] (setting [6]). For the same compound, the “increase of plasma concentration by ketoconazole pretreatment” value in data set [2] is reported as “about two-fold”. Besides, in the data set on P-glycoprotein (P-gp), the P-gp substrate entry was “avid substrate for P-gp”.

For `CN([11CH3])C(=O)C(CCN1CCC(O)(c2ccc(Cl)cc2)CC1)(c1ccccc1)c1ccccc1` [[^11C]loperamide] [[N-methyl-^11C]loperamide], the “increase of brain concentration by ketoconazole pretreatment” value in data set [1] (setting [3]) is on record as “about two-fold”. In addition, the brain concentration in data set [1] (P-gp knockout mice, baseline) is on record as 20.4 ± 3.2 % SUV; in data set [1] (setting [4]) it was 43.9 ± 14.0 % SUV; in data set [1] (wild-type mice, baseline), 2.86 ± 0.97 % SUV; in data set [1] (setting [6]) it was 2.9± 0.7 % SUV. Moreover, the “effect of ketoconazole pretreatment on brain concentration” value in data set [1] (setting [5]) was “no effect”. The plasma concentration in data set [2] (setting [7]) turned out to be 7.37 ± 4.55 % SUV; in data set [2] (setting [4]), 17.1± 9.0 % SUV; in data set [2] (setting [8]), 10.3 ± 2.1 % SUV; in data set [2] (setting [6]), 17.6 ± 5.9 % SUV. Further, the “increase of plasma concentration by ketoconazole pretreatment” value in data set [2] is listed as “about two-fold”.

With `CC(=O)N1CCN(c2ccc(OCC3COC(Cn4ccnc4)(c4ccc(Cl)cc4Cl)O3)cc2)CC1` (stereo not drawn) [ketoconazole], the “inhibition of the N-demethylation of loperamide” value in the data set with cDNA-expressed CYP3A4 is recorded as 90%. In addition, in the data set on CYP3A4, the inhibition constant Ki was […].

Regarding `CN(C)C(=O)C(CCN1CCC(O)(c2ccc(Cl)cc2)CC1)(c1ccccc1)c1ccccc1` [loperamide, reference compound], in the data set on P-glycoprotein (P-gp), the P-gp substrate entry is listed as “avid substrate for P-gp”.

Broadly, the Ki is a dissociation constant, usually derived from enzyme kinetics or from competition with a known ligand.
